Laboratory results taken from patent US12600715B2, “Soluble guanylate cyclate activators for treating systemic sclerosis” (Boehringer Ingelheim International GmbH, priority 2022, dated 2026).
“Also recorded” adds a separate entry of the source. Read-outs that look alike come from different tables or passages of the source.

Tests used:
[1] = system: bleomycin-induced dermal fibrosis; assay type: in vivo
[2] = system: platelet-rich plasma (PRP) from healthy donor volunteers; assay: Activation of PRP by ADP and CXCL4 detection by ELISA; assay type: cell-based, human; conditions: for ADP-induced CXCL4 production: PRP of 10 donors
Experimental: • Compound 114 (sample ID: 30295026, batch: 5) • EX0076637 (sample ID: 17810950, batch: 5) • Nintedanib esilate (Boehringer Ingelheim, Manufacture #67653, lot #1078235) • EX0000076 (sample ID: 15614118, batch: 1) • Blood from healthy donor volunteers • Plastic blood collection tubes with sodium citrate (BD biosciences, 363083) • 50 ml conical tube (Corning, 430828) • BSA solution, 30% in saline, fatty acid free, aseptically filled (Sigma, A9205) • ADP (Sigma, 01905-250MG-F) • Tyrode's buffer (Sigma, T2397) • HEPES (Gibco, 15630-080) • DMSO (Sigma, D2650) • 1 ml deep well plate (Thermo Scientific, 260251) • Sterile 0.22 um PVDF filter plate (Millipore, MAGVS2210) • 96 well microplate (Thermo Scientific, 249946) • CXCL4 ELISA kit (Abcam, ab189573 and R&D systems, DPF40)
Buffer preparation: HEPES-Tyrode BSA buffer: Tyrode's buffer supplemented with 0.35% BSA and 5 mM HEPES.
Generating platelet-rich plasma (PRP): Blood is collected from healthy donor volunteers, into plastic sodium citrate tubes. The first two collected tubes are discarded. The remaining blood is processed within 30 mins of blood drawing. The blood is poured into 50 ml conical tubes without exceeding 35 ml per tube and centrifuged at 200×g for 16 minutes at room temperature with acceleration set at half of maximum speed and deceleration off. After centrifugation, the top layer (PRP) is carefully transferred to a new tube by avoiding the buffy coat. The PRP is rested at room temperature for 5-15 minutes. The PRP is then ready to use for experiment as described in protocol below.
(§1) Preparation of Compound: 5.2 mg of Compound 114 is dissolved in […] of 100% DMSO at a concentration of 20 mM. The compound solution is then diluted to 10 mM in 100% DMSO. 10 mM of the compound solution is then diluted to 1 mM and 100 μM in 100% DMSO and then secondarily diluted to 100 μM, 10 μM, and 1 μM in HEPES-Tyrode BSA buffer, making 10× stock solutions.
as §1, with “Preparation of Compound 114 and EX 76637: 5.2 mg” for “Preparation of Compound: 5.2 mg”, “of 20 mM. 2.3 mg of EX 76637 is dissolved in 109 μl of 100% DMSO at a concentration of 50 mM. The” for “of 20 mM. The”, “and […] in 100%” for “and 100 μM in 100%”
Preparation of nintedanib: 2.9 mg of nintedanib is dissolved in 446.3 μl of 100% DMSO at a concentration of 10 mM. The compound solution is then diluted to 100 μM in 100% DMSO. 100 μM of the compound solution is then diluted to […] in HEPES-Tyrode BSA buffer, making 10× stock solutions.
Preparation of EX 00000776 (MMF): 2.3 mg of EX 00000776 is dissolved in 530.5 μl of 100% DMSO at a concentration of 10 mM. The compound solution is then diluted to 5 mM in 100% DMSO. 5 mM of the compound solution is then diluted to 50 µM in HEPES-Tyrode BSA buffer, making 10× stock solutions.
ADP is dissolved in distilled water at concentration of 100 mM. 100 mM ADP are further diluted in HEPES-Tyrode BSA buffer to 10 mM and then secondarily diluted to 100 μM in HEPES-Tyrode BSA buffer, making a 10× stock.
Eighty or forty microliters of PRP is added into a well of a 1 ml deep well plate containing 560 μl or 280 μl of HEPES-Tyrode BSA buffer. Eighty or forty microliters of the 10× compound solution is added per well and incubated at 37° C./5% CO2 for 30 mins prior to addition of ADP. Eighty or forty microliters of 100 μM ADP is added per well and the plate incubated at 37° C./5% CO2 for 5 mins. After 5 minutes of incubation, 300 microliters per well of stimulated PRP is transferred to a sterile 0.22 um PVDF 96-well filter plate. A 96 well microplate is placed under the filter plate to collect supernatant after centrifugation at 1100 rpm for 5 mins. […]

[3] = system: primary human microvascular endothelial cells; assay: Hypoxia assay: hypoxia induced TGFβ2 production (MSD ELISA); assay type: cell-based
Experimental: The assay uses the following materials and reagents: • Human dermal microvascular endothelial cells are obtained from (Lonza, 2543). • All experiments are performed with cells between passage 4 and passage 8. […]
Culturing endothelial cells: Dermal endothelial cells from each of the indicated donors are grown in T175 flasks with normal culturing media in 37° C./5% CO2 incubator. […] Cells are counted and plated into new T175 for further expansion or plated for the experiment as described in the protocol below. […]
• Day 0: Cells are trypsinized, counted and plated such that each well contains 8×10^3 cells and 100 μl of media and put in an incubator overnight (37° C.) • Day 1: Media is aspirated and replaced with basal media left at 37° C. overnight-24 hours • Day 2: Basal media is replaced with 90 μL of fresh basal media. […]
After treatment plates are left in 37° C. […] Supernatant is collected and TGFβ2 μlevels are measured using MSD ELISA.
Dermal microvascular endothelial cells from three normal donors are plated and grown to confluence. […] Cells and supernatants are collected after 48 hours and TGFβ2 μlevels are measured by MSD-ELISA. MSD plates are read using the MSD QuickPlex SQ 120 Instrument. […]

[4] = system: bleomycin-induced pulmonary fibrosis; assay: Bleomycin-induced pulmonary fibrosis, therapeutic dosing; assay type: in vivo, C57Bl/6 mice
Experimental: Compounds and formulation: Compound: Compound 114 (sample ID 30295026), batch 5 and EX00076637 (EX76637/riociguat), sample ID 17810950, batch 5 are both dissolved in Methylcellulose solution. The concentration is 10 mg/kg, 3 mg/kg and 1 mg/kg in a volume of 0.1 ml p.o. Nintedanib ethanesulfonate is prepared freshly every second day. The concentration is 60 mg/kg in a volume of 0.1 ml p.o. Hydroxyproline assay: The amount of collagen protein in skin samples is determined via hydroxyproline assay. After digestion of full skin thickness punch biopsies (Ø 3 mm) derived from the upper back in 6 M HCl for three hours at 120° C., the pH of the samples is adjusted to 6 with 6 M NaOH. For lungs, the middle lobe is analyzed. Afterwards, 0.06 M chloramine T is added to each sample and incubated for 20 min at room temperature. Next, 3.15 M perchloric acid and 20% p-dimethylaminobenzaldehyde are added and samples are incubated for additional 20 min at 60° C. The absorbance is determined at 557 nm with a Spectra MAX 190 microplate spectrophotometer using a standard curve generated with purified type I collagen (Sigma-Aldrich). In the model of bleomycin-induced lung fibrosis, fibrosis is induced by a single intratracheal injection of 50 μl bleomycin at day 0. Mice injected with equal volumes of 0.9% NaCl served as controls. The outcome is analyzed after 28 days. Treatment is started at day 15 post intratracheal installation of bleomycin and thus at a timepoint, when fibrosis is already preestablished. […] Histological evaluation of pulmonary fibrosis: Whole lungs are excised, fixed in 4% formalin for 6 h and embedded in paraffin. […] are cut and stained with Sirius Red. Images are captured using a Hamamatsu nano sumo S60 slide scanner microscope (Hamamatsu, Herrsching am Ammersee, Germany). Histological changes of pulmonary fibrosis are quantified by Ashcroft Scoring. The analysis is performed in a blinded manner. […] Statistics: All data are presented as median ±range, and differences between the groups are tested for their statistical significance by Mann-Whitney U non-parametric test for non-related samples.

[5] = 60 mg/kg qd for the last three weeks, vs bleomycin/vehicle mice
[6] = treatment initiated two weeks after instillation of bleomycin until end of experiment

CCOc1c(C(=O)O)cnn1-c1cccc(-c2cccc(C)c2OCc2ccc3c(c2C)CCN(C2CCOCC2)C3)n1 [Compound 114]
bleomycin-induced dermal fibrosis ([1]; doses of 1, 3 or 5 mg/kg for the last two weeks): also ameliorated bleomycin-induced dermal fibrosis | effects on dermal fibrosis compared with nintedanib ([1]; doses of 1, 3 or 5 mg/kg vs nintedanib 60 mg/kg qd): within the range of those observed with nintedanib | dose-dependency of effect on dermal fibrosis ([1]; doses of 1, 3 or 5 mg/kg, trends for dermal thickness and myofibroblast counts): no clear dose-dependency was observed | ADP-induced CXCL4 production ([2]; 0.1 μM, 10 μM ADP): reduced ADP-induced CXCL4 production in 9 out of 10 donors | ADP-induced CXCL4 production ([2]; 1 μM and 10 μM, 10 μM ADP): attenuated the ADP-induced CXCL4 production in all 10 donors | ADP-induced CXCL4 production, percentage of Max of all donors ([2]; 10 μM, 1 μM, 0.1 μM, 10 μM ADP, compared to ADP/DMSO): significantly reduced ADP-induced CXCL4 production in a dose-dependent manner | potency/efficacy on ADP-induced CXCL4 production relative to nintedanib, mycophenolate (MMF) and riociguat ([2]; FIG. 5): more potent/more efficacious | hypoxia-driven TGFβ2 production, statistical significance of reduction ([3]; 10 μM Compound 114, hypoxia 1% O2): Statistically significant reduction | hypoxia-induced TGFβ2 production ([3]; hypoxia 1% O2, 48 hrs, ODQ, supernatant, cells from 3 donors): inhibits hypoxia-induced TGFβ2 levels; also recorded: reduced hypoxia-driven TGFβ2 production in a concentration-dependent manner | fibrotic readouts of pulmonary fibrosis ([4]; doses of 1, 3 or 10 mg/kg): significantly improved the fibrotic readouts | dose trend for the Ashcroft score ([4]; doses of 1, 3 or 10 mg/kg, differences did not reach statistical significance): tendency towards more pronounced effects with higher doses

COC(=O)N(C)c1c(N)nc(-c2nn(Cc3ccccc3F)c3ncccc23)nc1N [EX76637, riociguat]
bleomycin-induced dermal fibrosis ([1]; doses of 1 mg/kg): also ameliorated bleomycin-induced dermal fibrosis | effects on dermal fibrosis compared with Compound 114 ([1]; doses of 1 mg/kg): comparable to those of Compound 114 | bleomycin-induced pulmonary fibrosis ([4]; 1 mg/kg bid p.o.): also ameliorated bleomycin-induced pulmonary fibrosis

COC(=O)c1ccc2c(c1)NC(=O)/C2=C(\Nc1ccc(N(C)C(=O)CN2CCN(C)CC2)cc1)c1ccccc1 [nintedanib, Nintedanib ethanesulfonate]
dermal thickness [1, 5]: reduced | hydroxyproline content (skin) [1, 5]: lower | myofibroblast counts [1, 5]: decreased | effect on ADP-induced CXCL4 production ([2]; standards of care, 10 μM ADP): ineffective; also recorded: Minimal to no effect | Ashcroft scores [4, 6]: reduced | collagen-covered area [4, 6]: reduced | hydroxyproline content (lung) [4, 6]: reduced

COC(=O)N(C)c1c(N)nc(-c2nn(Cc3ccccc3F)c3ncccc23)nc1N [riociguat]
effect on ADP-induced CXCL4 production ([2]; doses equivalent to Compound 114, 10 μM ADP): minimal effect; also recorded: Minimal to no effect
